{"source": "patent US7795226B2", "about": "“Control of radiation injury” (Biotempt B.V., priority 2006, dated 2010)", "key": {"[1]": {"system": "renal ischemia reperfusion in mice", "experiment": "mouse renal ischemia reperfusion test", "assay_type": "in vivo", "set-up": "BUN after 25 minutes renal ischemia, mean / Urea levels in dose-response experiment: unit not given here", "conditions": "for BUN concentration versus the PBS control group (in words) / mortality versus the PBS control group (in words) / BUN after 25 minutes renal ischemia, mean: 5 mg/kg i.v.; for mortality at 72 hours post-reperfusion: 5 mg/kg i.v. before and after 25 minutes clamping, dead/total", "description": "Six oligopeptides (i.e., A: LAGV (SEQ ID NO:121); B: AQGV (SEQ ID NO:120); C: LAG; D: AQG; E: MTR; and F: MTRV (SEO ID NO:119)) were tested and compared with PBS (control) in a double blind animal study for each peptide's relative ability to aid recovery in a mouse renal ischemia reperfusion test. In this test, the mice were anesthetized, and one kidney from each mouse was removed. The other kidney was tied off for 25 minutes, and the serum urea levels were allowed to increase. Both before and after tying off, each of the separate peptides was administered to thirty (30) different mice (5 mg oligopeptide / kg body mass intravenously), after which, the mortality of the mice was determined for each oligopeptide as well as was the BUN concentration at two hours, 24 hours and 72 hours. The results are shown in Table 3 below (excluding the results of peptide A (LAGV (SEQ ID NO:121)) obtained in Example 3).\nUnder inhalation anesthesia, the left kidney with its artery and vein was isolated and occluded for 25 minutes using a microvascular clamp. During surgery, animals were placed on a heating pad to maintain body temperature at 37° C. Five minutes before placing the clamp, and five minutes before releasing the clamp, 5 mg/kg of peptide dissolved in 0.1 mL of sterile saline, was administered intravenously. After reperfusion of the left kidney, the right kidney was removed. Kidney function was assessed by measuring blood urea nitrogen before clamping, and at 2, 24, and 72 hours after reperfusion.\nPeptides were tested at 0.3, 1, 3, 10 and 30 mg/kg dosages given as described in Example 3. P values (calculated by Mann Whitney U-test (SPSS for Windows)) of serum urea levels of PBS compared to peptide D groups at 72 hours post-clamping were at 0.3 mg/kg 0.001, at 1 mg/kg 0.009, at 3 mg/kg 0.02, at 10 mg/kg 0.000, and at 30 mg/kg 0.23; for peptide B (SEQ ID NO:120) groups, these P-values were 0.88, 0.054, 0.000, 0.001 and 0.003."}, "[2]": {"system": "LPS (E. coli 026:B6)-induced sepsis in BALB/c mice", "experiment": "endotoxin shock survival after early or late treatment with peptide", "assay_type": "in vivo", "description": "Mice used in sepsis or septic shock experiments: Female BALB/c mice of eight to twelve weeks of age were used for all experiments. The animals were bred in our facility under specific pathogen-free conditions according to the protocols described in the […] of European Laboratory Animal Science Associations (FELASA) Working group on Animal Health (Laboratory Animals 28:1-24, 1994).\nInjection protocols: For the endotoxin model, BALB/c mice were injected i.p. with 150-300 μg LPS (E. coli 026:B6; Difco Lab., Detroit, Mich., USA). Control groups were treated with PBS i.p. only. To test the effect of peptides, they were dissolved in PBS and injected i.p. at predetermined points in time after LPS treatment.\nA further set of septic shock experiments were set up to determine which of the peptides LQG, LQGV (SEQ ID NO:117), VLPALP (SEQ ID NO:140), VLPALPQ (SEQ ID NO:143), MTR, MTRV (SEQ ID NO:119), VVC or AQGV (SEQ ID NO:120) under study were most suited to be used early and/or late after or throughout the development of shock. For determining the percent of endotoxin shock survival after late or early treatment with peptide, BALB/c mice were injected i.p. with 300 μg LPS (E. coli 026:B6; Difco Lab., Detroit, Mich. USA), predetermined to be leading to 100% mortality in 48 hours without peptide treatment.\nTo evaluate the effect of peptide treatment at an early or late point in time of development of shock, mice were treated at two hours or at 24 hours after LPS injection by i.p. injection with test peptide at 5 mg/kg bodyweight. The mice were followed for 84 hours instead of for 48 hours in the earlier experiments."}, "[3]": {"conditions": "5 mg/kg given both early (2 hours) or late (24 hours)"}}}
{"substance": "AQGV", "values": [{"measurement": "Mortality in dose-response experiment", "setting": "[1]; 0.3 mg/kg, 24 hours", "result": "0-9"}, {"measurement": "Urea levels in dose-response experiment", "setting": "[1]; 0.3 mg/kg, 24 hours", "result": 62.4}, {"measurement": "Mortality in dose-response experiment", "setting": "[1]; 0.3 mg/kg, 72 hours", "result": "2-10"}, {"measurement": "Urea levels in dose-response experiment", "setting": "[1]; 0.3 mg/kg, 72 hours", "result": 86.7}, {"measurement": "Mortality in dose-response experiment", "setting": "[1]; 1.0 mg/kg, 24 hours", "result": "0-10"}, {"measurement": "Urea levels in dose-response experiment", "setting": "[1]; 1.0 mg/kg, 24 hours", "result": 50.0}, {"measurement": "Mortality in dose-response experiment", "setting": "[1]; 1.0 mg/kg, 72 hours", "result": "1-8"}, {"measurement": "Urea levels in dose-response experiment", "setting": "[1]; 1.0 mg/kg, 72 hours", "result": 52.6}, {"measurement": "Mortality in dose-response experiment", "setting": "[1]; 3.0 mg/kg, 24 hours", "result": "1-10"}, {"measurement": "Urea levels in dose-response experiment", "setting": "[1]; 3.0 mg/kg, 24 hours", "result": 37.4}, {"measurement": "Mortality in dose-response experiment", "setting": "[1]; 3.0 mg/kg, 72 hours", "result": "0-10"}, {"measurement": "Urea levels in dose-response experiment", "setting": "[1]; 3.0 mg/kg, 72 hours", "result": 19.6}, {"measurement": "BUN concentration versus the PBS control group (in words)", "setting": "[1]", "result": "reduced BUN concentration"}, {"measurement": "mortality versus the PBS control group (in words)", "setting": "[1]", "result": "significant reduction in mortality"}, {"measurement": "mortality at 72 hours post-reperfusion", "setting": "[1]", "result": "0/10"}, {"measurement": "Mortality in dose-response experiment", "setting": "[1]; 10.0 mg/kg, 24 hours", "result": "0-10"}, {"measurement": "Urea levels in dose-response experiment", "setting": "[1]; 10.0 mg/kg, 24 hours", "result": 41.2}, {"measurement": "Mortality in dose-response experiment", "setting": "[1]; 10.0 mg/kg, 72 hours", "result": "0-8"}, {"measurement": "Urea levels in dose-response experiment", "setting": "[1]; 10.0 mg/kg, 72 hours", "result": 37.1}, {"measurement": "Mortality in dose-response experiment", "setting": "[1]; 30.0 mg/kg, 24 hours", "result": "0-8"}, {"measurement": "Urea levels in dose-response experiment", "setting": "[1]; 30.0 mg/kg, 24 hours", "result": 47.8}, {"measurement": "Mortality in dose-response experiment", "setting": "[1]; 30.0 mg/kg, 72 hours", "result": "3-10"}, {"measurement": "Urea levels in dose-response experiment", "setting": "[1]; 30.0 mg/kg, 72 hours", "result": 38.0}, {"measurement": "BUN after 25 minutes renal ischemia, mean", "setting": "[1]; 2 hours after reperfusion", "result": 16.62}, {"measurement": "BUN after 25 minutes renal ischemia, mean", "setting": "[1]; 24 hours after reperfusion", "result": 26.36}, {"measurement": "BUN after 25 minutes renal ischemia, mean", "setting": "[1]; 72 hours after reperfusion", "result": 22.31}, {"measurement": "BUN after 25 minutes renal ischemia, mean", "setting": "[1]; t = 0 hr (before clamping)", "result": 9.713}, {"measurement": "% Survival", "setting": "[2]; 0 hours, peptide 5 mg/kg 2 hours after LPS", "result": 100, "unit": "%"}, {"measurement": "% Survival", "setting": "[2]; 0 hours, peptide 5 mg/kg 24 hours after LPS", "result": 100, "unit": "%"}, {"measurement": "clinical signs of shock at 84 hours after LPS-treatment (in words)", "setting": "[2]; [3]", "result": "no remaining clinical signs of shock"}, {"measurement": "survival at 84 hours after LPS-treatment", "setting": "[2]; [3]", "result": 100, "unit": "%"}, {"measurement": "% Survival", "setting": "[2]; 14 hours, peptide 5 mg/kg 2 hours after LPS", "result": 100, "unit": "%"}, {"measurement": "% Survival", "setting": "[2]; 14 hours, peptide 5 mg/kg 24 hours after LPS", "result": 100, "unit": "%"}, {"measurement": "% Survival", "setting": "[2]; 24 hours, peptide 5 mg/kg 2 hours after LPS", "result": 100, "unit": "%"}, {"measurement": "% Survival", "setting": "[2]; 24 hours, peptide 5 mg/kg 24 hours after LPS", "result": 100, "unit": "%"}, {"measurement": "% Survival", "setting": "[2]; 48 hours, peptide 5 mg/kg 2 hours after LPS", "result": 100, "unit": "%"}, {"measurement": "% Survival", "setting": "[2]; 48 hours, peptide 5 mg/kg 24 hours after LPS", "result": 100, "unit": "%"}, {"measurement": "% Survival", "setting": "[2]; 84 hours, peptide 5 mg/kg 2 hours after LPS", "result": 100, "unit": "%"}, {"measurement": "% Survival", "setting": "[2]; 84 hours, peptide 5 mg/kg 24 hours after LPS", "result": 100, "unit": "%"}]}
{"substance": "LAGV (tetramer peptide)", "values": [{"measurement": "BUN concentration versus the PBS control group (in words)", "setting": "[1]", "result": "reduced BUN concentration"}, {"measurement": "mortality versus the PBS control group (in words)", "setting": "[1]", "result": "significant reduction in mortality"}, {"measurement": "mortality at 72 hours post-reperfusion", "setting": "[1]", "result": "6/10"}, {"measurement": "BUN after 25 minutes renal ischemia, mean", "setting": "[1]; 2 hours after reperfusion", "result": 14.03}, {"measurement": "BUN after 25 minutes renal ischemia, mean", "setting": "[1]; 24 hours after reperfusion", "result": 38.86}, {"measurement": "BUN after 25 minutes renal ischemia, mean", "setting": "[1]; 72 hours after reperfusion", "result": 32.8875}, {"measurement": "BUN after 25 minutes renal ischemia, mean", "setting": "[1]; t = 0 hr (before clamping)", "result": 8.167}]}
